Numbering of substitutions follows the chain as printed. Like-named read-outs stand apart in the source and are kept apart here. Where a SMILES comes first, the peptide text is derived from it. [ ]: non-standard residue; d: D form. Aib = CC(C)(N)C(=O)O
Legend:
Assay type in all cases: cell-based
[1] = biological target: GCGR (Homo sapiens, UniProt P47871); test: cAMP accumulation assay, GCGR WT, mutant or modified constructs; parameters: V5 (C); 6×His (C); expressed in transfected cells; host or cells: HEK293T; conditions: for EC50 / Emax: HEK293T; for Emax: HEK-293T
Protocol: Human embryonic kidney 293 cells containing SV40 large T-antigen (HEK293T) were cultured in DMEM (Gibco) supplemented with 10% (v/v) fetal bovine serum (FBS, Gibco), 1 mM sodium pyruvate (Gibco) and 100 units/mL penicillin and 100 μg/mL streptomycin at 37 °C in 5% CO2. Chinese hamster ovary (CHO-K1) cells were cultured in F-12 (Gibco) containing 10% FBS, 100 units/mL penicillin and 100 μg/mL streptomycin at 37 °C in 5% CO2. For cAMP and receptor expression assays, HEK293T cells were seeded into 6-well cell culture plates at a density of 7 × 10^5 cells per well. After overnight incubation, cells were transfected with GIPR, GLP-1R or GCGR construct using Lipofectamine 2000 or Lipofectamine 3000 transfection reagent (Invitrogen). For whole-cell binding assay, CHO-K1 cells were seeded into 96-well fibronectin-treated cell culture plates at a density of 3 × 10^4 cells per well. After overnight incubation, cells were transfected with GIPR, GLP-1R or GCGR construct using Lipofectamine 2000 transfection reagent (Invitrogen). Following 24 h culturing, the transfected cells were ready for use. […]
(§1) For GIPR, GLP-1R and GCGR, multi-targeting agonist stimulated cAMP accumulation was measured by a LANCE Ultra cAMP kit (PerkinElmer). After 24 h culture, the transfected cells were seeded into 384-well microtiter plates at a density of 3,000 cells per well in HBSS supplemented with 5 mM HEPES, 0.1% (w/v) BSA or 0.1% (w/v) casein and 0.5 mM 3-isobutyl-1-methylxanthine. The cells were stimulated with different concentrations of peptide agonists for 40 min at RT. Eu-cAMP tracer and ULight^TM-anti-cAMP were then diluted by cAMP detection buffer and added to the plates separately to terminate the reaction. Plates were incubated at RT for 1 h and the fluorescence intensity measured at 620 nm and […] by an EnVision multilabel plate reader (PerkinElmer).

[2] = biological target: T1, GIPR (Homo sapiens, UniProt P48546, Y36A); test: cAMP accumulation assay (LANCE Ultra cAMP kit), GIPR WT, mutant or modified constructs; parameters: acylated tirzepatide to the full-length or modified; Flag; expressed in transfected cells; host or cells: HEK293T; conditions: GIPR Y36A, HEK293T; for EC50: read-out: cAMP pEC50 (converted)
T1 sequence (P48546 22-466 Y36A): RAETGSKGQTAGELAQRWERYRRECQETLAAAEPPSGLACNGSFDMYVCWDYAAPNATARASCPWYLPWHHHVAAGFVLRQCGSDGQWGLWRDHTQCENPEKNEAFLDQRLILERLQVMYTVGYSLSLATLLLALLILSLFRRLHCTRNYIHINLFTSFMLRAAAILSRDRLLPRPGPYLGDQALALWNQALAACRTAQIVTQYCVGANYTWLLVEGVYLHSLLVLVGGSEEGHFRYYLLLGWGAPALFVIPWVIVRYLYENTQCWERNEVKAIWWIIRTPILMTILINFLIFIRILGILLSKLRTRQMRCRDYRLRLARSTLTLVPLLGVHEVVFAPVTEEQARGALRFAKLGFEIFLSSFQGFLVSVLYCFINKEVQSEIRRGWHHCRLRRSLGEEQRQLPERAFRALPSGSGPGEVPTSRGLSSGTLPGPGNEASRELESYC
Protocol: (§2) Human embryonic kidney 293 cells containing SV40 large T-antigen (HEK293T) were cultured in DMEM (Gibco) supplemented with 10% (v/v) fetal bovine serum (FBS, Gibco), 1 mM sodium pyruvate (Gibco) and 100 units/mL penicillin and 100 μg/mL streptomycin at 37 °C in 5% CO2. Chinese hamster ovary (CHO-K1) cells were cultured in F-12 (Gibco) containing 10% FBS, 100 units/mL penicillin and 100 μg/mL streptomycin at 37 °C in 5% CO2. For cAMP and receptor expression assays, HEK293T cells were seeded into 6-well cell culture plates at a density of 7 × 10^5 cells per well. After overnight incubation, cells were transfected with GIPR, GLP-1R or GCGR construct using Lipofectamine 2000 or Lipofectamine 3000 transfection reagent (Invitrogen). For whole-cell binding assay, CHO-K1 cells were seeded into 96-well fibronectin-treated cell culture plates at a density of 3 × 10^4 cells per well. After overnight incubation, cells were transfected with GIPR, GLP-1R or GCGR construct using Lipofectamine 2000 transfection reagent (Invitrogen). Following 24 h culturing, the transfected cells were ready for use.
(§3) A BRIL fusion protein was added at the N-terminal of the ECD with a TEV protease site and 2GSA linker between them. C-terminal 45 amino acids (Q422-C466) of the receptor were truncated. LgBiT was added at the end of helix 8 with a 15-amino acid (15AA) polypeptide linker in between, followed by a TEV protease cleavage site and an OMBP-MBP tag. […] The construct and various mutants of human GIPR were cloned into pcDNA3.1 vector for cAMP accumulation and whole-cell binding assays.
as §1

[3] = biological target: T2, GIPR (Homo sapiens, UniProt P48546, T345F); test: as above; parameters: acylated tirzepatide to the full-length or modified; Flag; expressed in transfected cells; host or cells: HEK293T; conditions: GIPR T345F, HEK293T; for EC50: read-out: cAMP pEC50 (converted)
T2 sequence (P48546 22-466 T345F): T1 sequence (P48546 22-466 Y36A) with A15Y, T324F
Protocol: as §2, §3, §1

[4] = GCGR WT, 0.1% BSA, read-out: cAMP accumulation Emax
[5] = GCGR WT, 0.1% casein, read-out: cAMP accumulation Emax

Chain of GCGR (P47871 26-477): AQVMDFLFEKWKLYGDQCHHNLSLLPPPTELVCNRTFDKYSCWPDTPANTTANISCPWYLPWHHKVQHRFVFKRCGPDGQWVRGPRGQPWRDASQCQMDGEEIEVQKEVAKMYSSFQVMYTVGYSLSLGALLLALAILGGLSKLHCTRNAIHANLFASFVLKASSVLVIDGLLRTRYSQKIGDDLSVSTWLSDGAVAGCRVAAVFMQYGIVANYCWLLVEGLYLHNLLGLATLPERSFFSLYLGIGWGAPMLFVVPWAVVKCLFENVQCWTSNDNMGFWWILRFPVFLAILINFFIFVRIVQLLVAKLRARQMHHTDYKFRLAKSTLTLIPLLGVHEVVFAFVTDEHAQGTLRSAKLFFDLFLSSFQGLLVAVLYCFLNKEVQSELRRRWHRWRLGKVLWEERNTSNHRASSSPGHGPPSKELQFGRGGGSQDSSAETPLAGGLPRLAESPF

Row | Structure (SMILES) | EC50 ([1]; GCGR WT, 0.1% BSA, read-out: cAMP accumulation pEC50 (converted)) | reduction of cAMP accumulation vs peptide 20 ([1]; GCGR, 0.1% BSA) | EC50 for cAMP accumulation relative to peptide 20 ([1]; GCGR, 0.1% casein) | Emax [1, 4] | Emax [1, 5] | EC50 ([1]; GCGR WT, read-out: cAMP pEC50 (converted)) | EC50 ([1]; GCGR, n = 4, SEM, read-out: cAMP pEC50 ± S.E.M. (converted)) | Emax ([1]; GCGR WT, read-out: cAMP Emax) | Emax ([1]; GCGR, n = 4, SEM, read-out: cAMP Emax ± S.E.M.) | EC50 [2] | Emax ([2]; HEK-293T) | EC50 [3] | Emax ([3]; HEK-293T)
1 | CC(C)C[C@H](NC(=O)[C@H](CC(C)C)NC(=O)[C@H](Cc1c[nH]c2ccccc12)NC(=O)[C@H](CCC(N)=O)NC(=O)[C@@H](NC(=O)[C@H](Cc1ccccc1)NC(=O)[C@H](CC(=O)O)NC(=O)[C@H](CCC(N)=O)NC(=O)[C@H](C)NC(=O)[C@H](C)NC(=O)[C@H](CCCNC(=N)N)NC(=O)[C@H](CCC(=O)O)NC(=O)[C@H](CC(=O)O)NC(=O)[C@H](CC(C)C)NC(=O)[C@H](Cc1ccc(O)cc1)NC(=O)[C@H](CCCCN)NC(=O)[C@H](CO)NC(=O)[C@H](CCCCN)NC(=O)[C@H](CC(=O)O)NC(=O)[C@H](CO)NC(=O)[C@@H](NC(=O)[C@H](Cc1ccccc1)NC(=O)[C@@H](NC(=O)CNC(=O)[C@H](CCC(N)=O)NC(=O)C(C)(C)NC(=O)[C@@H](N)Cc1c[nH]cn1)[C@@H](C)O)[C@@H](C)O)C(C)C)C(=O)N[C@@H](CC(=O)O)C(=O)NCC(=O)NCC(=O)N1CCC[C@H]1C(=O)N[C@@H](CO)C(=O)N[C@@H](CO)C(=O)NCC(=O)N[C@@H](C)C(=O)N1CCC[C@H]1C(=O)N1CCC[C@H]1C(=O)N1CCC[C@H]1C(=O)N[C@@H](CO)C(N)=O [Non-lipidated peptide 20] (H-H[Aib]QGTFTSDKSKYLDERAAQDFVQWLLDGGPSSGAPPPS-NH2; N-terminus and C-terminus assumed) | 1.95 nM | 759 fold | −1,514 fold | 105 ± 2.16% | 103 ± 1.98% | – | – | – | – | – | – | – | –
2 | CCCCCCCCCCCCCCCC(=O)N[C@@H](CCC(=O)NCCCC[C@H](NC(=O)[C@H](CC(=O)O)NC(=O)[C@H](CO)NC(=O)[C@@H](NC(=O)[C@H](Cc1ccccc1)NC(=O)[C@@H](NC(=O)CNC(=O)[C@H](CCC(N)=O)NC(=O)C(C)(C)NC(=O)[C@@H](N)Cc1c[nH]cn1)[C@@H](C)O)[C@@H](C)O)C(=O)N[C@@H](CO)C(=O)N[C@@H](CCCCN)C(=O)N[C@@H](Cc1ccc(O)cc1)C(=O)N[C@@H](CC(C)C)C(=O)N[C@@H](CC(=O)O)C(=O)N[C@@H](CCC(=O)O)C(=O)N[C@@H](CCCNC(=N)N)C(=O)N[C@@H](C)C(=O)N[C@@H](C)C(=O)N[C@@H](CCC(N)=O)C(=O)N[C@@H](CC(=O)O)C(=O)N[C@@H](Cc1ccccc1)C(=O)N[C@H](C(=O)N[C@@H](CCC(N)=O)C(=O)N[C@@H](Cc1c[nH]c2ccccc12)C(=O)N[C@@H](CC(C)C)C(=O)N[C@@H](CC(C)C)C(=O)N[C@@H](CC(=O)O)C(=O)NCC(=O)NCC(=O)N1CCC[C@H]1C(=O)N[C@@H](CO)C(=O)N[C@@H](CO)C(=O)NCC(=O)N[C@@H](C)C(=O)N1CCC[C@H]1C(=O)N1CCC[C@H]1C(=O)N1CCC[C@H]1C(=O)N[C@@H](CO)C(N)=O)C(C)C)C(=O)O [Peptide 20] | – | – | – | 101 ± 1.36% | 100.2 ± 0.86% | 0.00562 nM | 0.00263 nM | 99.3 ± 1.73% | 101 ± 1.68% | 0.0123 nM | 100 ± 1.62% | 0.00794 nM | 99.6 ± 2.09%
3 | CC[C@H](C)[C@H](NC(=O)[C@H](CC(C)C)NC(=O)[C@H](Cc1c[nH]c2ccccc12)NC(=O)[C@H](CCC(N)=O)NC(=O)[C@@H](NC(=O)[C@H](Cc1ccccc1)NC(=O)[C@H](C)NC(=O)[C@H](CCCCNC(=O)COCCOCCNC(=O)COCCOCCNC(=O)CC[C@H](NC(=O)CCCCCCCCCCCCCCCCCCC(=O)O)C(=O)O)NC(=O)[C@H](CCC(N)=O)NC(=O)[C@H](C)NC(=O)[C@@H](NC(=O)[C@H](CCCCN)NC(=O)[C@H](CC(=O)O)NC(=O)[C@H](CC(C)C)NC(=O)C(C)(C)NC(=O)[C@@H](NC(=O)[C@H](CO)NC(=O)[C@H](Cc1ccc(O)cc1)NC(=O)[C@H](CC(=O)O)NC(=O)[C@H](CO)NC(=O)[C@@H](NC(=O)[C@H](Cc1ccccc1)NC(=O)[C@@H](NC(=O)CNC(=O)[C@H](CCC(=O)O)NC(=O)C(C)(C)NC(=O)[C@@H](N)Cc1ccc(O)cc1)[C@@H](C)O)[C@@H](C)O)[C@@H](C)CC)[C@@H](C)CC)C(C)C)C(=O)N[C@@H](C)C(=O)NCC(=O)NCC(=O)N1CCC[C@H]1C(=O)N[C@@H](CO)C(=O)N[C@@H](CO)C(=O)NCC(=O)N[C@@H](C)C(=O)N1CCC[C@H]1C(=O)N1CCC[C@H]1C(=O)N1CCC[C@H]1C(=O)N[C@@H](CO)C(N)=O [Tirzepatide] | – | – | – | – | – | – | – | – | – | 0.0589 nM | – | 0.0141 nM | –
